Here are results for 1 sequence from PMC8178997 (Chemical Science, 2020).

This assay concerns the target T1, NCBD (the [2066–2112]-fragment of CBP) (Mus musculus, UniProt P45481).
T1 sequence (P45481 2066-2112): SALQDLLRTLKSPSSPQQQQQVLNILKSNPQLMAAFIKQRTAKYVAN
The experiment in a line: Isothermal titration calorimetry. The assay is classed as binding. A general note: In ITC the heat of successive injections is recorded.

Where no end group is shown, it is not given here.

For orientation: Kd means the constant that tells how readily two partners part at equilibrium. Read a high Kd as weaker binding. For “EGQMDERALLEQLHQLLSNTDATGLEEIDRALGIPELVNQGQALEPK [[S1043M;D1050E;T1054Q]]”, the Kd is 188 nM. In other words, the sub-micromolar range.
